Assay: Pharmacokinetics of SN-38 and SN-38G after i.v. dosing of SN-38 in 40% SBECD
Format: in vivo, Female Sprague-Dawley rats
Settings: rat, i.v.
Procedure: Female Sprague-Dawley rats, 4 animals per group received i.v. injections of SN-38 (doses 0.65 mg/kg and 2 mg/kg) in 40% SBECD. The SN-38 solution for the treatment was prepared by the dilution of concentrated composition of the Example 1 with water. The blood plasma samples were collected from each group of animals, extracted using liquid extraction with cold methanol/acetonitrile mixture (1:1 v/v), and analyzed using a HPLC method with fluorescent detection. The results, including levels of SN-38 and SN-38G in plasma and calculated values of area under the curve (AUC) for SN-38 and SN-38G are presented in Tables 5 and 6 below.

## CCc1c2c(nc3ccc(O[C@@H]4O[C@H](C(=O)O)[C@@H](O)[C@H](O)[C@H]4O)cc13)-c1cc3c(c(=O)n1C2)COC(=O)[C@]3(O)CC [SN-38G, SN-38 glucuronide]
Dosing SN-38 0.65 mg/kg in 40% SBECD
  AUC: 0.275 µg·h/mL
Dosing SN-38 0.65 mg/kg in 40% SBECD, 0.17 h
  Plasma levels: 0.2665 µg/mL
Dosing SN-38 0.65 mg/kg in 40% SBECD, 0.5 h
  Plasma levels: 0.1507 µg/mL
Dosing SN-38 0.65 mg/kg in 40% SBECD, 0.75 h
  Plasma levels: 0.0971 µg/mL
Dosing SN-38 0.65 mg/kg in 40% SBECD, 1 h
  Plasma levels: 0.0615 µg/mL
Dosing SN-38 0.65 mg/kg in 40% SBECD, 3 h
  Plasma levels: 0.0157 µg/mL
Dosing SN-38 0.65 mg/kg in 40% SBECD, 6 h
  Plasma levels: 0.006 µg/mL
Dosing SN-38 2 mg/kg in 40% SBECD
  AUC: 1.085 µg·h/mL
Dosing SN-38 2 mg/kg in 40% SBECD, 0.17 h
  Plasma levels: 1.282 µg/mL
Dosing SN-38 2 mg/kg in 40% SBECD, 0.5 h
  Plasma levels: 0.7477 µg/mL
Dosing SN-38 2 mg/kg in 40% SBECD, 0.75 h
  Plasma levels: 0.2898 µg/mL
Dosing SN-38 2 mg/kg in 40% SBECD, 1 h
  Plasma levels: 0.2399 µg/mL
Dosing SN-38 2 mg/kg in 40% SBECD, 3 h
  Plasma levels: 0.0276 µg/mL
Dosing SN-38 2 mg/kg in 40% SBECD, 6 h
  Plasma levels: 0.0185 µg/mL

— US20110207760A1, “SN-38 COMPOSITIONS” (priority 2010, published 2011)
